Values quoted from earlier work as cited in patent US5994374A, “Substituted 1-indolylpropyl-4-benzyl-tetrahydropyridine derivatives” (Merck Sharp & Dohme Ltd., priority 1995, dated 1999).

Test system: human 5-HT1Dα and 5-HT1Dβ receptor subtypes
Conditions: cf. WO-A-91/17174, Table 1

CNS(=O)(=O)Cc1ccc2[nH]cc(CCN(C)C)c2c1 [sumatriptan]
discrimination between the human 5-HT1Dα and 5-HT1Dβ receptor subtypes: barely discriminates
